{
  "source": "paper PMC8333062",
  "about": "“Chemical tools for epichaperome-mediated interactome dysfunctions of the central nervous system” (Nature Communications, 2021)",
  "key": {"[1]": {"test_system": "intracranial MDA-MB-468", "assay": "Survival studies in mice", "type": "in vivo, mouse", "settings": "50 mg kg^−1 iv, three times per week, n=7"}, "[2]": {"test_system": "patient-derived GSCs", "assay": "GSC viability (CellTiter-Glo, 48 h)", "type": "cell-based, human", "set-up": "%Survival of cells at day 0 (ATP levels): concentration or dose not given beside the values; %Survival (ATP levels): reference not given here", "settings": "for %Survival (ATP levels): 1 μM, 48 h, individual replicates, listed as PU-HZ151; for %Survival of cells at day 0 (ATP levels): mean"}, "[3]": {"target": "T1, CYP1A2 (Homo sapiens, UniProt P05177)", "T1 sequence (P05177 1-516)": "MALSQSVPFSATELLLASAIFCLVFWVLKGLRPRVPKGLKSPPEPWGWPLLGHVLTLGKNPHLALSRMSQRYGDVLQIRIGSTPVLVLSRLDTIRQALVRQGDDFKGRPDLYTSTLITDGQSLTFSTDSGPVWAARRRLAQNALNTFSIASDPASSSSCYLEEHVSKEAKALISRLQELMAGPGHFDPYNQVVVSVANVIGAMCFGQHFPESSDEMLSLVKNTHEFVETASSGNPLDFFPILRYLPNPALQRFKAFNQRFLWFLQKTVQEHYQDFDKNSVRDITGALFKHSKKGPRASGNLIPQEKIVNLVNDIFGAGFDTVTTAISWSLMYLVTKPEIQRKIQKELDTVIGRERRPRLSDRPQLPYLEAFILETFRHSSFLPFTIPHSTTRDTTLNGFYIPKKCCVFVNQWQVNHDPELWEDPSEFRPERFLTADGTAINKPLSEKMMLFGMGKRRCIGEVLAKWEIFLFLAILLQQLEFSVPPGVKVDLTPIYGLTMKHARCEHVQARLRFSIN", "assay": "Cytochrome P450 profiling, furafylline", "type": "in vitro ADME", "settings": "for % PU-HZ151 remaining: Furafylline", "protocol": "(§1) To identify cytochrome P450 enzymes responsible for PU-HZ151’s metabolism in human liver microsomes the following procedure was followed. Phosphate buffer (100 mM, pH 7.4) was prepared monthly and stored at 4 °C. Frozen stock solutions of human liver microsomes (Life Technologies; Cat# HMMCPL) were used once after thawing and were not refrozen. NADPH stock solution (50 mM) in distilled water was prepared fresh daily. […] The stock solutions of these P450 inhibitors were prepared in DMSO. […] The concentration of the chemical inhibitors used in the assay were furafylline (10 μM), tranylcypromine (2 μM), ketoconazole (1 μM), troleandomycin (20 μM), orphenadrine (50 μM), montelukast (3 μM), sulfaphenazole (10 μM), benzylnirvanol (1 μM), quinidine (1 μM), and 1-aminobenzotriazole (1 mM) for all the P450 enzymes. Timing of the reactions was started following the addition of NADPH/magnesium chloride mix and PU-HZ151. Time-dependent chemical inhibitors (furafylline, troleandomycin, orphenadrine, and 1-aminobenzotriazole) were preincubated with human microsomes in the presence of NADPH and magnesium chloride for 15 min before the addition of PU-HZ151 and timing of reactions was started after addition of PU-HZ151. […] Following brief vortexing and centrifugation, a 200 µL aliquot of the supernatant was transferred to a tube, and 10 µL of haloperidol (1 µg mL^−1) as internal standard was added. Following brief vortexing and centrifugation, 50 µL of supernatant was added to a 96-well plate for subsequent LC-MS/MS analysis. PU-HZ151 was similarly tested as above in the absence of CYP inhibitors for comparative purposes. All samples were assayed in duplicate. […] This was similarly performed for incubations of PU-HZ151 performed in the absence of CYP inhibitor."}, "[4]": {"target": "T2, CYP3A4 (Homo sapiens, UniProt P08684)", "T2 construct": "tissue Life Technologies HMMCPL; host or cells: human liver microsomes", "T2 sequence (P08684 whole entry)": "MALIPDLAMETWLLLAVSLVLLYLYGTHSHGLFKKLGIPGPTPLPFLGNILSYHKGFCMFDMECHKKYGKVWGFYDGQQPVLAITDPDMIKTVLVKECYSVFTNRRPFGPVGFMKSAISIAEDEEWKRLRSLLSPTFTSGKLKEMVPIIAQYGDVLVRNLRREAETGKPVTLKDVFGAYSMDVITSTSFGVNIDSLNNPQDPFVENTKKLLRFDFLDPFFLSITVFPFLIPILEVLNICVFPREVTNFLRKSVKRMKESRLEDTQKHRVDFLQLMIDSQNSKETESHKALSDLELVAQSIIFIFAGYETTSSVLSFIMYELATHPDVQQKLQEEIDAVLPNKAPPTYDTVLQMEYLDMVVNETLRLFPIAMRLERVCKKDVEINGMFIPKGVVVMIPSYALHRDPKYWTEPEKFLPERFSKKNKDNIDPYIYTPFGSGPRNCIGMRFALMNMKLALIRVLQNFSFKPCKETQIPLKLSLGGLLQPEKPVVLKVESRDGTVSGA", "assay": "Cytochrome P450 profiling, troleandomycin", "type": "in vitro ADME", "settings": "for % PU-HZ151 remaining: Troleandomycin", "protocol": "as §1"}, "[5]": {"target": "T3, CYP2C9 (Homo sapiens, UniProt P11712)", "T3 construct": "PU-HZ151 (1 µM) was incubated with human liver microsomes (0.5 mg protein mL^−1); tissue Life Technologies HMMCPL; host or cells: human liver microsomes", "T3 sequence (P11712 whole entry)": "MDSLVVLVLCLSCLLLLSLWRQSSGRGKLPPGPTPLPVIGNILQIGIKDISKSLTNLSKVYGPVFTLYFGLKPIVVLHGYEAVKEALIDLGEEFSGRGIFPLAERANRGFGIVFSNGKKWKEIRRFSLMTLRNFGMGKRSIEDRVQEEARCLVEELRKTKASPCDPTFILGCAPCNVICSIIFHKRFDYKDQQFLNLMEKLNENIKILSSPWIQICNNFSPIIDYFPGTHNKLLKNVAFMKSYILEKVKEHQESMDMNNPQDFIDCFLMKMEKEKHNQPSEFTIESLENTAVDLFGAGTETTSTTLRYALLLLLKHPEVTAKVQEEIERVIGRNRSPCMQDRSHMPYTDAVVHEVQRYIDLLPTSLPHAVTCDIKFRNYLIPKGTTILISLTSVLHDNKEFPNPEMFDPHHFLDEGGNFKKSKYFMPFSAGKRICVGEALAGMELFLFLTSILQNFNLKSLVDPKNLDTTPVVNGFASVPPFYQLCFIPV", "assay": "Cytochrome P450 profiling, sulfaphenazole", "type": "in vitro ADME", "settings": "for % PU-HZ151 remaining: Sulfaphenazole", "protocol": "as §1"}, "[6]": {"test_system": "stress HSP90 from MDA-MB-468 cancer cells", "assay": "Binding to stress HSP90", "set-up": "species or system human", "settings": "study protocol; read-out: affinity (EC50) for stress HSP90"}, "[7]": {"test_system": "HER2 in SKBR3 cells", "assay": "HER2 degradation", "type": "cell-based, human"}, "[8]": {"test_system": "normal neurons", "type": "cell-based", "settings": "constant exposure of 72 hours"}, "[9]": {"assay": "Chronic administration toxicity", "type": "in vivo, B6C3F1 mice", "settings": "75 mg/kg IV 3 times per week, approximately 24 weeks"}, "[10]": {"assay": "PAMPA-BBB permeability"}},
  "note": "Where “and” joins values, the source holds several entries; their conditions need not be identical. Equal entries are not always repeated.",
  "data": [
    {"smiles": "CC(C)(C)CNCCn1c(Sc2cc3c(cc2I)OCO3)nc2c(N)ncnc21", "note": "[Compound 85]", "values": [
      {"measurement": "survival vs vehicle, log-rank P", "setting": "[1]", "value": 0.0001},
      {"measurement": "%Survival (ATP levels)", "setting": "[2]; GSC #5", "value": "31.63% and 18.68% and 4.03% and -9.88%"},
      {"measurement": "%Survival (ATP levels)", "setting": "[2]; GSC #6", "value": "-14.27% and -27.68% and -18.96% and -23.61%"},
      {"measurement": "%Survival (ATP levels)", "setting": "[2]; GSC #7", "value": "-51.27% and -33.16% and -43.96% and -19.32%"},
      {"measurement": "%Survival (ATP levels)", "setting": "[2]; GSC #8", "value": "-82.2411% and -82.5656% and -44.1066% and -65.5015% and -65.6835% and -64.1317%"},
      {"measurement": "%Survival (ATP levels)", "setting": "[2]; GSC #9", "value": "-79.4354% and -88.1536% and -74.4757% and -75.2771% and -91.5176% and -88.8402%"},
      {"measurement": "%Survival (ATP levels)", "setting": "[2]; GSC #10", "value": "-43.1943% and -48.7032% and -76.5217% and -90.9365%"},
      {"measurement": "%Survival (ATP levels)", "setting": "[2]; GSC #13", "value": "-9.18% and -20.17% and 1.94% and -5.51% and 23.62% and 22.18%"},
      {"measurement": "%Survival (ATP levels)", "setting": "[2]; GSC #15", "value": "-58.61% and -73.45% and -36.64% and -48.92%"},
      {"measurement": "%Survival (ATP levels)", "setting": "[2]; GSC #18", "value": "-64.4% and -60.27% and -57.05% and -50.97%"},
      {"measurement": "%Survival (ATP levels)", "setting": "[2]; GSC #19", "value": "-11.96% and -35.33% and -40.35% and -2.66% and -9.81%"},
      {"measurement": "%Survival (ATP levels)", "setting": "[2]; GSC #24", "value": "-81.22% and -79.53% and -20.38% and -28.49%"},
      {"measurement": "%Survival (ATP levels)", "setting": "[2]; GSC #30", "value": "-95.74% and -99.62% and -58.98% and -67.84% and -66.79% and -85.07% and -94.89%"},
      {"measurement": "%Survival (ATP levels)", "setting": "[2]; GSC #31", "value": "36.5% and 32.49% and 59.07% and 79.62% and 33.55% and 9%"},
      {"measurement": "%Survival of cells at day 0 (ATP levels)", "setting": "[2]; GSC# 5", "value": 11.1, "unit": "%"},
      {"measurement": "%Survival of cells at day 0 (ATP levels)", "setting": "[2]; GSC# 6", "value": -21.1, "unit": "%"},
      {"measurement": "%Survival of cells at day 0 (ATP levels)", "setting": "[2]; GSC# 8", "value": -67.4, "unit": "%"},
      {"measurement": "%Survival of cells at day 0 (ATP levels)", "setting": "[2]; GSC# 9", "value": -82.9, "unit": "%"},
      {"measurement": "%Survival of cells at day 0 (ATP levels)", "setting": "[2]; GSC# 10", "value": -64.8, "unit": "%"},
      {"measurement": "%Survival of cells at day 0 (ATP levels)", "setting": "[2]; GSC# 13", "value": 2.1, "unit": "%"},
      {"measurement": "%Survival of cells at day 0 (ATP levels)", "setting": "[2]; GSC# 15", "value": -54.4, "unit": "%"},
      {"measurement": "%Survival of cells at day 0 (ATP levels)", "setting": "[2]; GSC# 17", "value": 16.9, "unit": "%"},
      {"measurement": "%Survival of cells at day 0 (ATP levels)", "setting": "[2]; GSC# 18", "value": -58.2, "unit": "%"},
      {"measurement": "%Survival of cells at day 0 (ATP levels)", "setting": "[2]; GSC# 19", "value": -20, "unit": "%"},
      {"measurement": "%Survival of cells at day 0 (ATP levels)", "setting": "[2]; GSC# 24", "value": -52.4, "unit": "%"},
      {"measurement": "%Survival of cells at day 0 (ATP levels)", "setting": "[2]; GSC# 30", "value": -81.3, "unit": "%"},
      {"measurement": "%Survival of cells at day 0 (ATP levels)", "setting": "[2]; GSC# 31", "value": 41.7, "unit": "%"},
      {"measurement": "% PU-HZ151 remaining", "setting": "[3]; 15 min", "value": 65.9, "unit": "%"},
      {"measurement": "% PU-HZ151 remaining", "setting": "[3]; 30 min", "value": 47.3, "unit": "%"},
      {"measurement": "% PU-HZ151 remaining", "setting": "[3]; 60 min", "value": 26.3, "unit": "%"},
      {"measurement": "inhibition of PU-HZ151 metabolism", "setting": "[3]; furafylline", "value": 11, "unit": "%"},
      {"measurement": "% PU-HZ151 remaining", "setting": "[4]; 15 min", "value": 79.8, "unit": "%"},
      {"measurement": "% PU-HZ151 remaining", "setting": "[4]; 30 min", "value": 66.9, "unit": "%"},
      {"measurement": "% PU-HZ151 remaining", "setting": "[4]; 60 min", "value": 50.9, "unit": "%"},
      {"measurement": "inhibition of PU-HZ151 metabolism", "setting": "[4]; troleandomycin", "value": 40, "unit": "%"},
      {"measurement": "% PU-HZ151 remaining", "setting": "[5]; 15 min", "value": 70.5, "unit": "%"},
      {"measurement": "% PU-HZ151 remaining", "setting": "[5]; 30 min", "value": 54.1, "unit": "%"},
      {"measurement": "% PU-HZ151 remaining", "setting": "[5]; 60 min", "value": 36.5, "unit": "%"},
      {"measurement": "inhibition of PU-HZ151 metabolism", "setting": "[5]; sulfaphenazole", "value": 23, "unit": "%"},
      {"measurement": "EC50", "setting": "[6]", "value": 6.9, "unit": "nM"},
      {"measurement": "IC50", "setting": "[7]", "value": 8.2, "unit": "nM"},
      {"measurement": "concentration needed to induce toxicity", "setting": "[8]", "value": 100, "unit": "µM"},
      {"measurement": "chronic toxicity", "setting": "[9]", "value": "No"},
      {"measurement": "PAMPA_BBB", "setting": "[10]; Supplementary Table 6", "value": "15.4±2.6"},
      {"measurement": "Papp at 16 h, 50 μM", "setting": "[10]; pig, PAMPA, pH 7.4", "value": "15.4 ± 1.3", "unit": "×10⁻⁶ cm/s"}
    ]}
  ]
}
